Measurements as given in patent publication US5962502A, “Polyamidic acid derivatives with antigastrin activity, a method for their preparation, and their pharmaceutical use” (priority 1993, dated 1999).

molecular target: T1, central CCK-B receptor (Cavia porcellus, UniProt H0VZC5); assay: Inhibition of the binding of [3-H][N-methyl-N-leucine]CCK-8 to guinea-pig cortical membranes; conditions: guinea-pig cortical membranes, 150 minutes at 25° C.
T1 construct: Cerebral cortices of male white guinea-pigs were thus used; from tissue; host or cells: cerebral cortex membranes of male white guinea-pigs
T1 sequence (H0VZC5 1-426): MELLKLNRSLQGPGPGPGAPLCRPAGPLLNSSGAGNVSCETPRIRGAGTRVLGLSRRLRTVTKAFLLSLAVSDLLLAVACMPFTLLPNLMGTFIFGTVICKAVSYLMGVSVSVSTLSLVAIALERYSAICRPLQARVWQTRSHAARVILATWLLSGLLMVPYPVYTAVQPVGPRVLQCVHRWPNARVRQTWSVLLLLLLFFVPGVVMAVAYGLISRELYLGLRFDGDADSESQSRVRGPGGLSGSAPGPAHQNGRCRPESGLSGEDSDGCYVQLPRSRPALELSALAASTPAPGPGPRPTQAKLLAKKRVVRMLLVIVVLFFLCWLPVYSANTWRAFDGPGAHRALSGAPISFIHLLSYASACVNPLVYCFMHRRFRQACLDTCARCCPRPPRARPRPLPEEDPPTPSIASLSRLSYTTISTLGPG
Experimental: The ability of the compounds of the invention to interact with the central CCK-B receptor was evaluated with the use of non-sulphated [3-H] […] 225 (3) (1990), 1278-1286].
Cerebral cortices of male white guinea-pigs were thus used, according to the method mentioned above, so as to obtain a membrane content corresponding to about 300 mcg of proteins/ml. The membranes were incubated together with the radioactive tracer and the compounds under test for 150 minutes at 25° C. After the supernatant had been discarded, the radioactivity associated with the pellet was determined with a liquid scintillator. The specific binding was determined as the difference between the binding in the absence and in the presence of 5.10^-6 M CCK-8.

Point of comparison: `CC1(C)CCC(NC(=O)[C@@H](CCC(=O)O)NC(=O)CC[C@@H](NC(=O)c2cc(Cl)cc(Cl)c2)C(=O)N2CCC3(CCCC3)CC2)CC1` [Compound 35], IC50 1700 nM. Against it:
- O=C(CC[C@@H](NC(=O)c1cc(Cl)cc(Cl)c1)C(=O)N1CCC2(CCCC2)CC1)N[C@H](COCc1ccccc1)C(=O)O [Compound 23] — 6.3-fold lower, 270 nM
- O=C(CC[C@@H](NC(=O)c1cc(Cl)cc(Cl)c1)C(=O)N1CCC2(CCCC2)CC1)N[C@H](Cc1ccc2ccccc2c1)C(=O)O [Compound 24] — 13-fold lower, 130 nM
- O=C(CC[C@@H](NC(=O)c1cc(Cl)cc(Cl)c1)C(=O)N1CCC2(CCCC2)CC1)N[C@H](CC1CCCCC1)C(=O)O [Compound 28] — 2.6-fold lower, 650 nM
- O=C(C[C@@H](NC(=O)c1cc(Cl)cc(Cl)c1)C(=O)N1CCC2(CCCC2)CC1)N[C@H](Cc1c[nH]c2ccccc12)C(=O)O [Compound 43] — 1.7-fold lower, 1030 nM
- O=C(CC[C@@H](NC(=O)c1cc(Cl)cc(Cl)c1)C(=O)N1CCC2(CCCC2)CC1)Nc1ccc(C(=O)O)cc1 [Compound 47] — within 1.5-fold, 1720 nM
- Cc1cc(C(=O)O)ccc1NC(=O)CC[C@@H](NC(=O)c1cc(Cl)cc(Cl)c1)C(=O)N1CCC2(CCCC2)CC1 [Compound 52] — 1.6-fold higher, 2770 nM
- CC(C)(C)CCNC(=O)[C@@H](CCC(=O)Nc1ccc(C(=O)O)cc1)NC(=O)c1cc(Cl)cc(Cl)c1 [Compound 53] — 3.8-fold higher, 6400 nM

molecular target: T2, gastrin receptors or type-B cholecystokinin (CCK-B) receptors (Oryctolagus cuniculus, UniProt P46627); assay: Inhibition of the gastrin-induced increase of cytosolic calcium in rabbit gastric mucous-membrane cells (Fura 2); assay type: cell-based; conditions: binding values taken from Table 3
T2 construct: Rabbit gastric mucous-membrane cells were prepared by conventional techniques; endogenous in cells; host or cells: freshly isolated rabbit gastric mucosal cells, enriched by elutriation to about 70% parietal cells
T2 sequence (P46627 1-452): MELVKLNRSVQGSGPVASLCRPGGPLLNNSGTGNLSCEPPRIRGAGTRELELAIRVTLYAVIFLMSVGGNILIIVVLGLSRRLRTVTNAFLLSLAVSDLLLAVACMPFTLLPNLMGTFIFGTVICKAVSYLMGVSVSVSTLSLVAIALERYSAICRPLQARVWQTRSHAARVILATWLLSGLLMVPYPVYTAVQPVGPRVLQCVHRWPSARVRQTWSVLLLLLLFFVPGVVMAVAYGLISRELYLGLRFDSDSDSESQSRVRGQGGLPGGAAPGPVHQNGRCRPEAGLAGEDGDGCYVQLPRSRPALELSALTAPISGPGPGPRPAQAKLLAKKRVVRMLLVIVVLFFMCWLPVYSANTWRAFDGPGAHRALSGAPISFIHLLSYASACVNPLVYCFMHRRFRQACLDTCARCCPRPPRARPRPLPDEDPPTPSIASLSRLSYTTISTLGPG
Source text: The parietal cells of the gastric mucous membrane are responsible for the secretion of HCl. They have specific membrane receptors which can be activated by gastrin and which have been defined as gastrin receptors or type-B cholecystokinin (CCK-B) receptors. Since it has been observed that the activation of the CCK-B receptors by gastrin leads to an increase in the cytosolic levels of calcium ions, a technique involving the measurement of the increase in intracellular calcium induced by gastrin in the presence and in the absence of the compounds of the invention was used as an index of the antigastrin activity of the compounds. Rabbit gastric mucous-membrane cells were prepared by conventional techniques with the use of collagenase and pronase as digestive enzymes. The cellular preparation obtained by the enzymatic digestion was composed of parietal cells, zymogen cells and mucous-membrane cells. […] The cells were then washed and resuspended in a saline solution buffered with HEPES containing, in mM: […] Each measurement was carried out on cells in suspension (0.8×10^6 /ml) at a thermostatically-controlled temperature of 37° C. and with constant magnetic stirring. The fluorescence was recorded with the use of a spectrofluorometer. The operative wavelengths were 340/380 nm for excitation and 505 nm for emission. […] Biol. Chem. 260 (1985), 3440]. […] The results thus obtained for some compounds of the invention are given in Table 4, which also gives an index derived from the ratio between the peripheral antigastrin activity just described and the displacement activity found in the test on binding to the guinea-pig cortex receptors described above.

Point of comparison: `O=C(CC[C@@H](NC(=O)c1cc(Cl)cc(Cl)c1)C(=O)N1CCC2(CCCC2)CC1)N[C@H](COCc1ccccc1)C(=O)O` [Compound 23], “Ratio IC50 Binding cortex / IC50 (gastric mucous cells)” value 4.5. Against it:
- O=C(CC[C@@H](NC(=O)c1cc(Cl)cc(Cl)c1)C(=O)N1CCC2(CCCC2)CC1)N[C@H](Cc1ccc2ccccc2c1)C(=O)O [Compound 24] — lower, 4.3
- O=C(CC[C@@H](NC(=O)c1cc(Cl)cc(Cl)c1)C(=O)N1CCC2(CCCC2)CC1)N[C@H](CC1CCCCC1)C(=O)O [Compound 28] — higher, 6.5
- CC1(C)CCC(NC(=O)[C@@H](CCC(=O)O)NC(=O)CC[C@@H](NC(=O)c2cc(Cl)cc(Cl)c2)C(=O)N2CCC3(CCCC3)CC2)CC1 [Compound 35] — higher, 14.2
- O=C(C[C@@H](NC(=O)c1cc(Cl)cc(Cl)c1)C(=O)N1CCC2(CCCC2)CC1)N[C@H](Cc1c[nH]c2ccccc12)C(=O)O [Compound 43] — higher, 14.7
- O=C(CC[C@@H](NC(=O)c1cc(Cl)cc(Cl)c1)C(=O)N1CCC2(CCCC2)CC1)Nc1ccc(C(=O)O)cc1 [Compound 47] — the same, 4.5
- Cc1cc(C(=O)O)ccc1NC(=O)CC[C@@H](NC(=O)c1cc(Cl)cc(Cl)c1)C(=O)N1CCC2(CCCC2)CC1 [Compound 52] — lower, 1.2

same assay, conditions: data taken from Table 4 (rabbit gastric mucous cells), reprinted in Table 6

With `O=C(CC[C@@H](NC(=O)c1cc(Cl)cc(Cl)c1)C(=O)N1CCC2(CCCC2)CC1)N[C@H](Cc1ccc2ccccc2c1)C(=O)O` [Compound 24] the “CCK-B-antagonistic activity IC50 (II)” value was 30 nM.

same assay, conditions: rabbit gastric mucous cells enriched in parietal cells, gastrin 5×10^-8

Point of comparison: `CC1(C)CCC(NC(=O)[C@@H](CCC(=O)O)NC(=O)CC[C@@H](NC(=O)c2cc(Cl)cc(Cl)c2)C(=O)N2CCC3(CCCC3)CC2)CC1` [Compound 35], “IC50, inhibition of the increase of cytosolic calcium” value 120 nM. Against it:
- O=C(CC[C@@H](NC(=O)c1cc(Cl)cc(Cl)c1)C(=O)N1CCC2(CCCC2)CC1)N[C@H](COCc1ccccc1)C(=O)O [Compound 23] — 2-fold lower, 60 nM
- O=C(CC[C@@H](NC(=O)c1cc(Cl)cc(Cl)c1)C(=O)N1CCC2(CCCC2)CC1)N[C@H](Cc1ccc2ccccc2c1)C(=O)O [Compound 24] — 4-fold lower, 30 nM
- O=C(CC[C@@H](NC(=O)c1cc(Cl)cc(Cl)c1)C(=O)N1CCC2(CCCC2)CC1)N[C@H](CC1CCCCC1)C(=O)O [Compound 28] — within 1.5-fold, 100 nM
- O=C(C[C@@H](NC(=O)c1cc(Cl)cc(Cl)c1)C(=O)N1CCC2(CCCC2)CC1)N[C@H](Cc1c[nH]c2ccccc12)C(=O)O [Compound 43] — 1.7-fold lower, 70 nM
- O=C(CC[C@@H](NC(=O)c1cc(Cl)cc(Cl)c1)C(=O)N1CCC2(CCCC2)CC1)Nc1ccc(C(=O)O)cc1 [Compound 47] — 3.2-fold higher, 380 nM
- Cc1cc(C(=O)O)ccc1NC(=O)CC[C@@H](NC(=O)c1cc(Cl)cc(Cl)c1)C(=O)N1CCC2(CCCC2)CC1 [Compound 52] — 19-fold higher, 2330 nM

With `CC(C)(C)CCNC(=O)[C@@H](CCC(=O)Nc1ccc(C(=O)O)cc1)NC(=O)c1cc(Cl)cc(Cl)c1` [Compound 53] the “IC50, inhibition of the increase of cytosolic calcium” value was “IN (IN (inactive) when the IC50 is >3.10^-5 M)”.

molecular target: T3, CCK-A (Cavia porcellus, UniProt Q63931); assay: Anti-CCK-A activity on guinea-pig gall bladder stimulated in vitro by CCK-8; conditions: gall bladder IC50 over gastric mucous cells IC50
T3 construct: A longitudinal strip of guinea-pig gall-bladder was put in a bath for isolated organs; from tissue; host or cells: guinea-pig gall bladder longitudinal strip
T3 sequence (Q63931 1-430): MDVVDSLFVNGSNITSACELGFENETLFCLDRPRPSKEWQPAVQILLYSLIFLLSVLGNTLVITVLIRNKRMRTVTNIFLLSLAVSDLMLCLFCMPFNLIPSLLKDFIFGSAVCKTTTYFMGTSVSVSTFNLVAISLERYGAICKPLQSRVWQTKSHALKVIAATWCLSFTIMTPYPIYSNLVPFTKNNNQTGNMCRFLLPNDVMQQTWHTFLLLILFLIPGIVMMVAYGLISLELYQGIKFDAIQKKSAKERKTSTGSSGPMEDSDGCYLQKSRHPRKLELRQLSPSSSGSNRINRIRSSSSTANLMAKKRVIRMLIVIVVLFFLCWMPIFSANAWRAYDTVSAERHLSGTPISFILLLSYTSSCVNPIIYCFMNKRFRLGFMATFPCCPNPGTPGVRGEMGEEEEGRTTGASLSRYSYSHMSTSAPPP
Experimental: The experimental model used was guinea-pig gall bladder stimulated in vitro by CCK-8, with the use of lorglumide as the reference standard. A longitudinal strip of guinea-pig gall-bladder was put in a bath for isolated organs in the presence of Krebs buffer at a temperature of 32° C., with continuous oxygenation with an oxygen-CO2 mixture (95-[…]). The isometric contractions were detected by means of a force transducer and recorded.

`O=C(CC[C@@H](NC(=O)c1cc(Cl)cc(Cl)c1)C(=O)N1CCC2(CCCC2)CC1)N[C@H](Cc1ccc2ccccc2c1)C(=O)O` [Compound 24] was tested, and the “Ratio I/II (CCK-A IC50 / CCK-B IC50)” value was 1527.

same assay, conditions: guinea-pig gall bladder in vitro, CCK-8 10 ng/ml; read-out: CCK-A-antagonistic activity IC50 (I)

Point of comparison: `CCCCCN(CCCCC)C(=O)C(CCC(=O)O)NC(=O)c1ccc(Cl)c(Cl)c1` (stereo not drawn) [R-lorglumide, reference compound], IC50 50 nM. Against it:
- O=C(CC[C@@H](NC(=O)c1cc(Cl)cc(Cl)c1)C(=O)N1CCC2(CCCC2)CC1)N[C@H](Cc1ccc2ccccc2c1)C(=O)O [Compound 24] — 920-fold higher, 45800 nM
